Assay results from PubChem BioAssay AID449764 (Southern Research Specialized Biocontainment Screening …, 2010).

Tested on: Mycobacterium tuberculosis H37Rv growth inhibition, no glycerol
Experiment: Mycobacterium tuberculosis H37Rv growth inhibition, no glycerol, confirmatory dose response (AID 449764);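 also: growth read after 7 days of incubation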
Conditions: for IC90: measured here: IC90 growth inhibition

`CCOC(=O)N/N=C(/C)c1ccc([N+](=O)[O-])o1` was tested. Which IC50 did it give?
The IC50 was 43.1 µM.

What about the IC90 of the same compound?
Its IC90 is greater than 100 µM.

How did the IC50 turn out when `CC(/C=N/n1c(C2CCCCC2)n[nH]c1=S)=C\c1ccccc1` was run?
The IC50 was 80.8 µM.

And the IC90?
The IC90 was 90.3 µM.

For `Cc1cccc2c1N(CCCOc1ccc(C(C)(C)C)cc1)C(=O)C2=O`, which IC50 is on record?
Its IC50 is 17.4 µM.

And the IC90?
Its IC90 is 20.1 µM.

What does the source list for `Cc1cc(C)c2nc(-c3ccncc3)cc(C(=O)N3CCN(Cc4ccccc4Cl)CC3)c2c1`?
IC50: 31.3 µM; IC90: 43.7 µM

How did the IC50 turn out when `COC(=O)c1c(NC(=O)C(=O)N2CCCC2)sc2c1CC(C)(C)OC2` was run?
Its IC50 is 65.3 µM.

What about the IC90 of the same compound?
The IC90 was greater than 100 µM.

Which IC50 does the source give for `CN1CCN(CC(=O)N2CCn3c4c(c5cc(C6CCCCC6)ccc53)CCCC42)CC1` (centres undefined) here?
Its IC50 is 18 µM.

And the IC90?
The IC90 was 21.6 µM.

`Cn1c(NCC(O)c2ccccc2)nc2c1c(=O)n(Cc1ccc(Cl)c(Cl)c1)c(=O)n2C` (centres undefined) was tested. Which IC50 did it give?
Its IC50 is 77.8 µM.

What about the IC90 of the same compound?
The IC90 was greater than 100 µM.

Which results are given for `N#CC(C(=O)Nc1ccccc1)=C1Nc2ccccc2N1`?
IC50: 39.1 µM; IC90: > 100 µM

`Cc1cc(=O)n2cccc(O)c2n1` was tested. Which IC50 did it give?
Its IC50 is 11.8 µM.

And the IC90?
The IC90 was 21.5 µM.

How did the IC50 turn out when `CCn1c(C)c(C)c2cc(C(=O)Nc3cccc(Cl)c3)ccc21` was run?
The IC50 was 36.2 µM.

And the IC90?
Its IC90 is greater than 100 µM.

How did the IC50 turn out when `Cc1ccc(/C=C/C(=O)N2CC(C)CC(C)C2)o1` (centres undefined) was run?
The IC50 was 36.3 µM.

What about the IC90 of the same compound?
Its IC90 is 49.4 µM.

Which results are given for `Cc1ccc(NC(=O)CSc2nc3ccccc3c(=O)n2CCCN2CCCCC2)cc1Cl`?
IC50: 36.6 µM; IC90: 79.2 µM

For `COC(=O)C1CC(=O)N(c2ccc(OCc3ccccc3Cl)cc2)C1` (centres undefined), which IC50 is on record?
Its IC50 is 1.26 µM.

What about the IC90 of the same compound?
Its IC90 is 4.8 µM.

What does the source list for `Nc1ccccc1C#CC(=O)c1ccccc1`?
IC50: 4.11 µM; IC90: 21.7 µM

For `C=CCn1c(O)c(N=Nc2ccccc2O)c2ccccc21`, which IC50 is on record?
The IC50 was 16.4 µM.

What about the IC90 of the same compound?
Its IC90 is 22.4 µM.

Which IC50 does the source give for `Clc1ccc(CNc2nc(CN3CCOCC3)nc3scc(-c4ccccc4)c23)cc1` here?
Its IC50 is 33.5 µM.

And the IC90?
Its IC90 is 42.1 µM.

With `O=[N+]([O-])c1cc(-c2nc(-c3ccncc3)no2)cc([N+](=O)[O-])c1` as the compound, how does the IC50 read?
The IC50 was 10.4 µM.

What about the IC90 of the same compound?
Its IC90 is 20.5 µM.

`CCCCn1c(NCc2ccc3c(c2)OCO3)nc2ccccc21` was tested. Which IC50 did it give?
The IC50 was 23.5 µM.

What about the IC90 of the same compound?
Its IC90 is 25.9 µM.

Which IC50 does the source give for `O=C(c1cc(COc2ccc(F)cc2F)on1)N1CCCC(c2ccccc2)C1` (centres undefined) here?
The IC50 was 53.8 µM.

What about the IC90 of the same compound?
Its IC90 is greater than 100 µM.

With `Cc1[nH]n(-c2ccccc2)c(=O)c1C(C[N+](=O)[O-])c1ccccc1Cl` (centres undefined) as the compound, how does the IC50 read?
The IC50 was 23.4 µM.

And the IC90?
Its IC90 is 27.1 µM.

For `Cc1ccc(-c2noc(=O)n2CC(=O)c2ccc(Cl)cc2)cc1`, which IC90 is on record?
Its IC90 is greater than 50 µM.

How did the IC50 turn out when `COc1cccc2sc(Nc3nnc(-c4cccs4)o3)nc12` was run?
Its IC50 is 33.9 µM.

And the IC90?
Its IC90 is 42.7 µM.

Which IC50 does the source give for `CCN(CC)CCN(C(=O)c1ccc(S(=O)(=O)N2CCCC2)cc1)c1nc2cc(C)cc(C)c2s1` here?
The IC50 was 11.7 µM.

What about the IC90 of the same compound?
The IC90 was 13.5 µM.

How did the IC50 turn out when `Oc1ccc(F)c2cccnc12` was run?
The IC50 was 5.94 µM.

And the IC90?
The IC90 was 6.56 µM.

With `CCCCCCN=C1CC(C)(C)CC(=O)/C1=C(/O)CCC` as the compound, how does the IC50 read?
Its IC50 is 71 µM.

What about the IC90 of the same compound?
Its IC90 is greater than 100 µM.

`CC(C)c1ccc(N2C(=O)NC(=O)/C(=C\C=C\c3ccco3)C2=O)cc1` was tested. Which IC50 did it give?
Its IC50 is 44.5 µM.

What about the IC90 of the same compound?
The IC90 was 49.7 µM.

With `CCC(C)N1CCC2(CC1)N=c1c(c3c4c5c(C)c(O)c3c(O)c1=NC(=O)C(C)=CC=C[C@H](C)[C@H](O)[C@@H](C)[C@@H](O)[C@@H](C)[C@H](OC(C)=O)[C@H](C)[C@@H](OC)C=CO[C@@](C)(O5)C4=O)N2` (some centres undefined) as the compound, how does the IC50 read?
Its IC50 is less than 0.2 µM.

And the IC90?
The IC90 was less than 0.2 µM.

How did the IC50 turn out when `c1ccc(C2[C@H]3CN(CC4CCCCC4)[C@H](c4ccccc4)C34CC2(c2cccnc2)C4)cc1` (some centres undefined) was run?
Its IC50 is 34.2 µM.

What about the IC90 of the same compound?
The IC90 was 45.1 µM.

With `O=C1NN(c2ccc(Br)cc2)C(=O)/C1=C\c1ccc(O)cc1O` as the compound, how does the IC90 read?
Its IC90 is greater than 100 µM.

`CC1CCCC/C1=N\NC(=S)NCCc1ccccc1` (centres undefined) was tested. Which IC50 did it give?
Its IC50 is 42.5 µM.

What about the IC90 of the same compound?
Its IC90 is 47.9 µM.

Which IC50 does the source give for `CCC(C)c1ccc2oc(-c3ccc(NC(=O)c4ncn[nH]4)cc3)nc2c1` (centres undefined) here?
Its IC50 is 8.12 µM.

And the IC90?
Its IC90 is 33 µM.

With `Cc1c(CCC(=O)NCCCn2ccnc2)c(=O)oc2c(C)c3occ(C(C)(C)C)c3cc12` as the compound, how does the IC50 read?
Its IC50 is 28 µM.

What about the IC90 of the same compound?
The IC90 was 37.6 µM.

For `COC(=O)c1cc(=O)n(-c2ccc(F)cc2)c(=Nc2ccc(F)cc2)s1`, which IC50 is on record?
Its IC50 is 0.46 µM.

And the IC90?
The IC90 was 1.24 µM.

Which results are given for `Cc1nc(NCCc2ccccc2)c2oc3ccccc3c2n1`?
IC50: 7.3 µM; IC90: 13.3 µM

With `CN(C)S(=O)(=O)c1cccc(NC(=O)CSc2cccc3cccnc23)c1` as the compound, how does the IC50 read?
Its IC50 is 60.6 µM.

And the IC90?
Its IC90 is 68.2 µM.

`N#CC(C#N)=c1ccc2c(c1)N1C3=C(CCCC3)CC3CCCCC31N=2` (centres undefined) was tested. Which IC50 did it give?
Its IC50 is 12.5 µM.

And the IC90?
Its IC90 is 13.5 µM.

Which results are given for `COC(=O)c1ccc2c(c1O)C(=O)c1ccccc1C2=O`?
IC50: 83.6 µM; IC90: 89.4 µM

For `Cc1nnc(-c2ccccc2)c(=O)n1/N=C/c1c(O)ccc2ccccc12`, which IC50 is on record?
Its IC50 is 22.1 µM.

What about the IC90 of the same compound?
Its IC90 is 24.7 µM.

For `CCN(CC)CCOC(=O)c1ccc(N/C=C(/C#N)c2nc(-c3ccc4c(c3)OCO4)cs2)cc1`, which IC50 is on record?
The IC50 was 62.2 µM.

And the IC90?
The IC90 was greater than 100 µM.

`CC(OC(=O)c1cnc2ccccc2n1)c1ccccc1Cl` (centres undefined) was tested. Which IC50 did it give?
Its IC50 is 22 µM.

And the IC90?
Its IC90 is 34 µM.

Which IC50 does the source give for `COc1ccc(-c2nnc(NC(=O)c3ccc([N+](=O)[O-])o3)o2)c(OC)c1` here?
The IC50 was 6.13 µM.

And the IC90?
The IC90 was 14 µM.

With `O=c1c2c(nc3nc(NCc4ccc(Cl)cc4)[nH]n13)CCC2` as the compound, how does the IC50 read?
Its IC50 is 9.12 µM.

What about the IC90 of the same compound?
The IC90 was 14.3 µM.

Which IC50 does the source give for `CCOC(=O)CN(C#N)c1nc(N(C)C)nc(N(C)C)n1` here?
The IC50 was 12.8 µM.

And the IC90?
Its IC90 is 14.6 µM.

What does the source list for `CNC[C@H](Cc1cccc2ccccc12)NC[C@H](CCSC)NCC1CCC(C(C)(C)C)CC1` (some centres undefined)?
IC50: 42.6 µM; IC90: 47.1 µM

For `CCC(C)(C)c1ccc(OCCCC[n+]2ccc(C)cc2)c(C(C)(C)CC)c1`, which IC50 is on record?
Its IC50 is 12 µM.

And the IC90?
Its IC90 is 13.8 µM.

What does the source list for `Cc1ccc(NC(=O)c2cnc(SCC(=O)NCC3CCCO3)n(C)c2=O)cc1C` (centres undefined)?
IC50: 32 µM; IC90: > 100 µM

For `Cc1nc2scc(-c3cccs3)c2c(=O)n1-n1cccc1`, which IC50 is on record?
Its IC50 is 88.7 µM.

What about the IC90 of the same compound?
The IC90 was greater than 100 µM.

Which IC50 does the source give for `c1ccc(-c2n[nH]c(-c3ccccn3)n2)cc1` here?
Its IC50 is 20.5 µM.

What about the IC90 of the same compound?
Its IC90 is 27.5 µM.

`O=C(c1cc2ccccc2o1)N1CCN(S(=O)(=O)c2ccc(Cl)s2)CC1` was tested. Which IC50 did it give?
Its IC50 is 15.6 µM.

What about the IC90 of the same compound?
Its IC90 is 56 µM.

With `Cc1occc1-c1nnc(SCC(=O)NCCc2ccccc2)o1` as the compound, how does the IC50 read?
The IC50 was 16.6 µM.

What about the IC90 of the same compound?
Its IC90 is 25.2 µM.

Which results are given for `O=C(CCc1ccc(Oc2cc([N+](=O)[O-])cc([N+](=O)[O-])c2)cc1)N1CCCCCC1`?
IC50: 14.9 µM; IC90: 22.9 µM

How did the IC50 turn out when `O=C(NC1CCN(Cc2ccccc2)CC1)c1cccc(S(=O)(=O)Nc2ccc(SC(F)F)cc2)c1` was run?
Its IC50 is 19.3 µM.

And the IC90?
Its IC90 is 27.9 µM.

How did the IC50 turn out when `O=C1Nc2cc(C(=O)NCCCN3CCOCC3)ccc2S/C1=C/c1cccc(Cl)c1` was run?
The IC50 was 32.9 µM.

What about the IC90 of the same compound?
The IC90 was 44.9 µM.

Which results are given for `CCOC(=O)c1c(NC(=O)CCl)sc(CN(C)C)c1-c1ccccc1`?
IC50: 2.99 µM; IC90: 10.7 µM

Which results are given for `O=C(OCc1ccc([N+](=O)[O-])cc1)c1cc2ccccc2oc1=O`?
IC50: 12 µM; IC90: > 100 µM

`Cc1cc(C2N=C(N)Nc3nc4ccccc4n32)c(C)n1-c1ccccc1Cl` (centres undefined) was tested. Which IC50 did it give?
The IC50 was 17.3 µM.

What about the IC90 of the same compound?
The IC90 was 21.4 µM.

Which results are given for `Cc1ccc2[nH]c3c(N4CCN(Cc5ccccc5)CC4)ncnc3c2c1`?
IC50: 25.1 µM; IC90: 46 µM

What does the source list for `CC(C)CNC(=S)NC(=O)c1csc([N+](=O)[O-])c1`?
IC50: 22.2 µM; IC90: 53.7 µM

Which IC50 does the source give for `O=C(CSC(=S)N1CCCC1)c1cc(Br)cc(Br)c1O` here?
Its IC50 is 41.2 µM.

What about the IC90 of the same compound?
The IC90 was 45.4 µM.

With `O=C(Oc1c(Cl)cc(Cl)c2cccnc12)c1cccs1` as the compound, how does the IC50 read?
Its IC50 is 1.28 µM.

What about the IC90 of the same compound?
The IC90 was 1.38 µM.

Which IC50 does the source give for `COc1cccc(-c2nnc(NC(=O)c3ccc(S(=O)(=O)N4CCOCC4)cc3)o2)c1` here?
The IC50 was 32.4 µM.

What about the IC90 of the same compound?
The IC90 was 46 µM.

Which results are given for `c1ccc2c(C3=NNC(=NC4CCCCC4)SC3)c[nH]c2c1`?
IC50: 37.7 µM; IC90: 45.4 µM

For `COc1cccc(N2CCN(c3ncnc4c3[nH]c3ccccc34)CC2C)c1` (centres undefined), which IC50 is on record?
Its IC50 is 27.1 µM.

And the IC90?
Its IC90 is 42.5 µM.
